Data: ChEMBL document CHEMBL3745664, “Synthesis, biological evaluation and QSAR studies of diarylpentanoid analogues as potential nitric oxideinhibitors” (Medchemcomm, 2015)

Key:
RAW264.7 [1] = assay: Antiinflammatory activity in mouse RAW264.7 cells assessed as inhibition of LPS/IFN-gamma-stimulated nitric oxide production at 50 uM after 17 hrs by Griess assay; type: functional; conditions: RAW264.7, 17 h
RAW264.7 [2] = assay: Antiinflammatory activity in mouse RAW264.7 cells assessed as inhibition of LPS/IFN-gamma-stimulated nitric oxide production after 17 hrs by Griess assay; type: functional, cell-based; conditions: RAW264.7, 17 h
RAW264.7 [3] = assay: Cytotoxicity against mouse RAW264.7 cells by MTT assay; type: cell-based
[4] = Chemical stability of the compound in phosphate buffer at 20 uM at pH 2.4 at 25 degC by UV-visible spectrophotometric analysis; type: physicochemical; conditions: pH 2.4, 20 µM
[5] = Chemical stability of the compound in phosphate buffer at 20 uM at pH 7 at 25 degC by UV-visible spectrophotometric analysis; type: physicochemical; conditions: pH 7, 20 µM
[6] = Chemical stability of the compound in phosphate buffer at 20 uM at pH 12.7 at 25 degC by UV-visible spectrophotometric analysis; type: physicochemical; conditions: pH 12.7, 20 µM

| SMILES | inhibition at 50 µM (RAW264.7 [1]) [%] | IC50 (RAW264.7 [2]; read-out: IC50) [µM] | IC50 (RAW264.7 [2]; read-out: pIC50 (converted)) [µM] | IC50 (RAW264.7 [3]) [µM] | Stability [4] | Stability [5] | Stability [6] |
| --- | --- | --- | --- | --- | --- | --- | --- |
| O=C(/C=C/C=C/c1ccccc1)c1ccccc1 | 66.8 | 44.6 | 44.6 | 44.3 | – | – | – |
| O=C(/C=C/C=C/c1ccccc1)c1cc(Cl)ccc1O | < 10 | – | – | – | – | – | – |
| COc1ccc(/C=C/C=C/C(=O)c2cc(Cl)ccc2O)cc1 | 26.4 | – | – | – | – | – | – |
| O=C(/C=C/C=C/c1ccc(Cl)cc1)c1cc(Cl)ccc1O | < 10 | – | – | – | – | – | – |
| O=C(/C=C/C=C/c1ccccc1)c1ccccc1O | < 10 | – | – | – | – | – | – |
| O=C(/C=C/C=C/c1ccccc1)c1ccc(F)cc1 | 33.1 | – | – | – | – | – | – |
| COc1ccc(/C=C/C=C/C(=O)c2ccc[nH]2)cc1 | 95.8 | 57.4 | 57.4 | > 100 | – | – | – |
| COc1ccc(/C=C/C=C/C(=O)c2cccs2)cc1 | 69.6 | 47.9 | 47.9 | 68.5 | – | – | – |
| COc1cc(/C=C/C=C/C(=O)c2ccc(F)cc2)cc(OC)c1O | 76.7 | 39.3 | 39.3 | 5 | – | – | – |
| O=C(/C=C/C=C/c1ccccc1)c1cccc(O)c1 | 104 | 26.1 | 26.1 | 48.7 | – | – | – |
| COc1ccc(/C=C/C=C/C(=O)c2ccc(O)cc2F)cc1 | 102 | 21.8 | 21.8 | 60.3 | – | – | – |
| COc1ccc(C(=O)/C=C/C=C/c2ccccc2)cc1 | 51.1 | 71.2 | 71.1 | > 100 | – | – | – |
| COc1cc(/C=C/C=C/C(=O)c2ccccc2)cc(OC)c1O | 64.1 | 42 | 42 | 28.7 | – | – | – |
| COc1ccc(/C=C/C=C/C(=O)c2ccc(OC)c(O)c2)cc1 | 100 | 16.3 | 16.3 | 28.4 | – | – | – |
| CN(C)c1ccc(/C=C/C=C/C(=O)c2ccc(F)cc2)cc1 | 71.5 | 63.8 | 63.8 | > 100 | – | – | – |
| COc1ccc(/C=C/C=C/C(=O)c2ccc(OC)cc2)cc1 | 41.6 | – | – | – | – | – | – |
| O=C(/C=C/C=C/c1ccccc1)c1cc(Cl)cc(Cl)c1O | 19.6 | – | – | – | – | – | – |
| O=C(/C=C/C=C/c1ccc(O)cc1)c1ccc(F)cc1 | 110 | 14.8 | 14.8 | 45.5 | – | – | – |
| COc1ccc(C(=O)/C=C/C=C/c2ccc(N(C)C)cc2)cc1 | 54.5 | 77.4 | 77.4 | > 100 | – | – | – |
| CN(C)c1ccc(/C=C/C=C/C(=O)c2cccs2)cc1 | 32.4 | – | – | – | – | – | – |
| COc1ccc(C(=O)/C=C/C=C/c2ccc(O)cc2)c(O)c1 | 93.4 | 27.1 | 27.1 | > 100 | – | – | – |
| COc1ccc(/C=C/C=C/C(=O)c2ccc(OC)cc2OC)cc1 | < 10 | – | – | – | – | – | – |
| COc1ccc(/C=C/C=C/C(=O)c2ccc(O)c(Cl)c2)cc1 | 98.2 | 23.5 | 23.4 | 67.6 | – | – | – |

| SMILES | inhibition at 50 µM (RAW264.7 [1]) [%] | IC50 (RAW264.7 [2]; read-out: IC50) [µM] | IC50 (RAW264.7 [2]; read-out: pIC50 (converted)) [µM] | IC50 (RAW264.7 [3]) [µM] | Stability [4] | Stability [5] | Stability [6] |
| --- | --- | --- | --- | --- | --- | --- | --- |
| O=C(/C=C/C=C/c1ccc(O)cc1)c1ccc(O)cc1 | 102 | 16.4 | 16.4 | > 100 | – | – | – |
| COc1ccc(/C=C/C=C/C(=O)c2cc(C)oc2C)cc1 | 59.7 | 39.8 | 45.7 | > 100 | – | – | – |
| Cc1ccc(C(=O)/C=C/C=C/c2ccccc2)s1 | 52.6 | 68.6 | 68.5 | > 100 | – | – | – |
| Cc1cc(C(=O)/C=C/C=C/c2ccccc2)c(C)o1 | 84.6 | 59 | 58.9 | > 100 | – | – | – |
| O=C(/C=C/C=C/c1ccccc1)c1cc(Br)ccc1O | < 10 | – | – | – | – | – | – |
| COc1ccc(/C=C/C=C/C(=O)c2ccc(F)cc2)cc1 | 40 | – | – | – | – | – | – |
| O=C(/C=C/C=C/c1ccc(Cl)cc1)c1ccc(Cl)cc1 | 31.2 | – | – | – | – | – | – |
| COc1ccc(/C=C/C=C/C(=O)c2ccccc2)cc1 | 77.4 | 45.8 | 45.8 | > 100 | – | – | – |
| COc1ccc(C(=O)/C=C/C=C/c2ccc(Cl)cc2)cc1 | 45.4 | 70.5 | 70.5 | 80.2 | – | – | – |
| COc1ccc(/C=C/C=C/C(=O)c2ccco2)cc1 | 61.5 | 27.5 | 27.5 | 76.6 | – | – | – |
| COc1ccc(/C=C/C=C/C(=O)c2cc(OC)c(O)c(OC)c2)cc1 | 89.4 | 21.5 | 21.4 | 58.6 | – | – | – |
| CN(C)c1ccc(/C=C/C=C/C(=O)c2ccco2)cc1 | 56.9 | 116 | – | > 100 | – | – | – |
| COc1ccc(/C=C/C=C/C(=O)c2ccc(C)s2)cc1 | 41.7 | – | – | – | – | – | – |
| COc1ccc(/C=C/C=C/C(=O)c2cc(C)sc2C)cc1 | 44.8 | – | – | – | – | – | – |
| Cc1ccc(/C=C/C=C/C(=O)c2ccccc2)cc1 | 73.7 | – | – | – | – | – | – |
| CN(C)c1ccc(/C=C/C=C/C(=O)c2ccccc2)cc1 | 51.2 | 73.6 | 73.5 | > 100 | – | – | – |
| O=C(/C=C/C=C/c1ccc(O)cc1)c1ccc(O)cc1O | 82.1 | 27.2 | 27.2 | > 100 | – | – | – |
| COc1ccc(/C=C/C=C/C(=O)c2cc(Cl)cc(Cl)c2O)cc1 | < 10 | – | – | – | – | – | – |
| CN(C)c1ccc(/C=C/C=C/C(=O)c2ccccc2O)cc1 | 16.4 | – | – | – | – | – | – |
| Cc1ccc(C(=O)/C=C/C=C/c2ccc(O)cc2)s1 | 103 | 10.2 | 10.2 | 28.3 | Stable | Stable | Stable |
| COc1ccc(/C=C/C=C/C(=O)c2ccc(C)cc2)cc1 | 42.2 | – | – | – | – | – | – |
| O=C(/C=C/C=C/c1ccccc1)c1ccc(Cl)cc1 | < 10 | – | – | – | – | – | – |
| COc1cc(/C=C/C(=O)CC(=O)/C=C/c2ccc(O)c(OC)c2)ccc1O [CURCUMIN] | 99.3 | – | – | > 100 | Stable | Unstable | Stable |
